Source: publication PMC10238420, “Altered Signaling and Desensitization Responses in PTH1R Mutants Associated with Eiken Syndrome” (Communications Biology, 2023)

Legend:
[1] = molecular target: PTH1R-H223R (Homo sapiens, UniProt Q03431, H223R); test: Inverse agonist effect on basal cAMP, Gs22a cells; type: cell-based; conditions: 100 nM
Text: Minutes Minutes [PTHrP(7-36)] Log M
+Veh. +SW +Veh. +SW +Veh.+SW +Veh. +SW +SW
DMSO Dyngo+Veh. DMSO Dyngo+Veh. DMSO Dyngo+Veh. DMSO Dyngo+Veh. DMSO DMSO Dyngo+Veh.Dyngo+SW
Suppl ement al Fi gure 9.
Dat a f or PT H1R-H223R and
DMSO+PTHrP(7-36) Dyngo+Veh. Dyngo+PTHrP(7-36) DMSO+Veh. DMSO+SW106Dyngo+Veh. […] DMSO+SW106Dyngo+Veh. Dyngo+SW106 PTH1R-R485X DMSO+Veh. DMSO+SW106Dyngo+Veh. Dyngo+SW106 ##* DMSO+Veh. DMSO+SW106Dyngo+Veh. Dyngo+SW106 ##*** DMSO+Veh. DMSO+SW106Dyngo+Veh. Dyngo+SW106 PTH1R-H223R)

[2] = test system: PTH1R-R485X; conditions: 100 nM
Protocol: Data are means ± SEM of three separate experiments, with triplicate wells in each.
Basal and ligand-stimulated cAMP signaling was assessed via the glosensor cAMP reporter in Gs22a cells transiently transfected to express either the WT or a mutant hPTH1R in white 96-well plates at room temperature. […] The plate was then placed into a PerkinElmer Envision plate reader and luminescence, as counts per second (cps), was measured at 2-min intervals for 15 min, during which time luciferin uptake occurred and luminescence reached a near steady-state baseline level. The plate was then removed from the plate reader, CIDB alone (vehicle) or containing a test ligand at varying concentrations was added, and luminescence was again measured at 2 min intervals for an additional 30–60 min.

[3] = test system: PTH1R-R485X; conditions: PTH(1-34) 1 nM
Protocol: was added and moni t or i ng c ont i nued f or an addi t i onal 30 mi nut es .
shown in panel a. c) Cel l s wer e pr et r eat ed f or 15 mi nut es wi t h ei t her DMSO or Dy ngo4a ( 30 uM) , t hen
mi nut es ( agoni s t-was hout phas e) . T he AUCs of t he 90-mi nut e agoni s t-was hout r es pons es f or eac h
wi t h v ehi c l e dur i ng t he agoni s t-was hout phas e ( 100%) .

Substance: LLHDLdWKSIQD L R R R FWL H H L IAEIH TAEY.N H 2 [dTrp^12-PTHrP(7-36), [Leu^11,dTrp^12,Trp^23,Tyr^36]-PTHrP(7–36)NH2]
- effect on basal cAMP, in words [1]: rapid decreases in the intracellular cAMP levels
- effect on basal cAMP, in words [2]: rapid decreases in the intracellular cAMP levels
- inhibition of subsequently added PTH(1-34) cAMP signaling, in words [3]: dose-dependent inhibition of cAMP signaling
